# Source: patent US8551961B2, “Localized delivery of cardiac inotropic agents” (Massachusetts Institute of Technology, priority 2005, dated 2013)
# Entries after “also recorded” stand apart in the source; their conditions may differ.
# Test system: Sprague Dawley rats
# Assay: Pericardial application of dobutamine to the left ventricular free wall in anesthetized rats, hemodynamic recording
# Type: in vivo, rat
# Text: Sprague Dawley rats ([…]) were anesthetized with an intraperitoneal injection of ketamine and xylazine. The rat was laid on a heating pad and maintained euthermic with warming lights. A 24 gauge intravenous catheter was placed in the tail vein and Ringer's lactate solution (LR) was infused at 10 cc/hr. The trachea was exposed through a vertical incision and cannulated with a 16 gauge blunt cannula that served as an endotracheal tube. The tube was connected to a ventilator for control of ventilation and respiration. The respiratory rate was set to 60 breaths per minute, inspiratory to expiratory time was set to 1:2 and inspiratory flow was 2 liters per minute. A midline sternotomy was performed, the heart exposed and the pericardium resected. The right carotid artery was dissected clean of fascia and care was taken to preserve the adjacent vagus nerve. A polyethelene (PE-50) cannula was inserted via an arteriotomy into the carotid artery and advanced through the ascending aorta into the left ventricle. This ventricular cannula was connected to a high fidelity pressure transducer and digital data acquisition system to record hemodynamic measures. Heart rate (HR), left ventricular systolic blood pressure (SBP), and the maximum rate of change of blood pressure in the left ventricle during isovolemic contraction (dp/dt max) was all recorded. The dp/dt max is the gold standard index of myocardial contractility.
# Following cannulation the rat was stabilized for 30 minutes. Five-second recordings of HR, SBP and dp/dt max were captured every 3 to 5 minutes. SBP and dp/dt max were averaged over all the beats captured in the 5-second interval. Dobutamine (313 mcg/ml), a potent beta agonist inotropic agent, was delivered to the left ventricular free wall through the sternotomy using an infusion pump connected to a 24 gauge IV cannula that was suspended directly over the heart (4 mcg/min, 0.8 ml/hr). […] After 30 minutes the pericardial application of dobutamine was terminated and hemodynamic measurements were recorded for an additional 30 minutes.
compound,measurement,setting,value
CC(CCc1ccc(O)cc1)NCCc1ccc(O)c(O)c1 (stereo not drawn) [dobutamine],Left ventricular systolic blood pressure / systemic blood pressure,"dobutamine 4 mcg/min for 30 minutes, local pericardial delivery, FIG. 2",increased
same,Heart rate,"dobutamine 4 mcg/min for 30 minutes, topical application to the heart, FIG. 3",increased
same,Contractility (max dp/dt of left ventricular pressure during isovolemic contraction),"dobutamine 313 mcg/ml, 4 mcg/min (0.8 ml/hr) for 30 minutes, applied directly to left ventricular free wall, FIG. 1",increased significantly; also recorded: significantly increased
